The text below walks through data of publication PMC9788324, “In Vitro and In Silico Pharmacological and Cosmeceutical Potential of Ten Essential Oils from Aromatic Medicinal Plants from the Mascarene Islands” (Molecules, 2022).

The structures appear in SMILES notation.

The target of assay [1] is T1, porcine pancreatic elastase (Sus scrofa, UniProt P00772).
T1 construct: gene CELA1; commercial native pancreatic enzyme (Sigma-Aldrich); mature form; docking used PDB 1BRU (recalled as porcine elastase 2), not the assay protein
T1 sequence (P00772 27-266): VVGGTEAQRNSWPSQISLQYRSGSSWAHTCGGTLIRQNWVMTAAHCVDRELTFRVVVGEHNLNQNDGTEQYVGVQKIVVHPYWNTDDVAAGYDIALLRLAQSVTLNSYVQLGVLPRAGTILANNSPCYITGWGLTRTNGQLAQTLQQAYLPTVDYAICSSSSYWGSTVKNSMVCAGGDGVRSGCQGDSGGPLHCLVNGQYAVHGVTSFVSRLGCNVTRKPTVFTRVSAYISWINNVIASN
As to the kind of experiment: chromogenic assay, absorbance at […] nm. The format is biochemical. The note with it: read-out: Elastase Inhibition / IC50 (μg/mL) (converted).

Assay [2] concerns the target T2, collagenase from Clostridium histolyticum (Type IV).
T2 construct: gene colG; native commercial collagenase from EnzChek Gelatinase/Collagenase Assay Kit; ColG/ColH not distinguished; docking used PDB 2Y6I, not the assay protein
Put plainly: fluorescence assay, DQ gelatin-fluorescein ([…] nm). The format is biochemical, Hathewaya histolytica. The note with it: DQ gelatin substrate, 0.2 U/mL enzyme, 15 min preincubation at 37 °C; positive control, printed as '1,1 Phenanthroline' in table.

Regarding `C[C@H]1[C@H](C)CC[C@]2(C(=O)O)CC[C@]3(C)C(=CC[C@@H]4[C@@]5(C)CC[C@H](O)C(C)(C)[C@@H]5CC[C@]43C)[C@H]12` [Ursolic acid], the IC50 in assay [1] is 22.1 µM. For `c1cnc2c(c1)ccc1cccnc12` [1,10-phenanthroline], the “Collagenase Inhibition / IC50 (mg/mL)” value in assay [2] was 4.20 × 10^−3 ± 0.00 mg/mL.
